This is an account of results in paper PMC7576608, “Mechanisms of telomerase inhibition by oxidized and therapeutic dNTPs” (Nature Communications, 2020).

Where “and” joins values, the source holds several entries; their conditions need not be identical. Equal entries are not always repeated. Where two headings read alike, the source gives them in different places.

Assay [1] concerns the target T1, tcTERT (Tribolium castaneum, UniProt Q0QHL8). Nature of the assay: Pre-steady-state single-turnover kinetics of tcTERT single nucleotide insertion. Type of assay: biochemical. Details: tcTERT kobs: unit not given here. The settings on record: for Fold change: catalytic efficiency relative to dGTP. The text has this: In order to better understand the ability of modified dNTPs to compete with natural dNTPs for telomerase utilization, we added modified dNTPs to reactions containing all four natural dNTPs. […] The calculated IC50 determines the concentration required to reduce repeat processivity in the bulk reactions by half. However, it is important to note that bulk experiments cannot distinguish effects on individual telomeres, since extended telomeres mask unextended telomeres. Incorporation of a chain terminator during any step will terminate extension of the affected telomere, and just five critically short telomeres are sufficient to trigger senescence. Therefore, repeat processivity IC50 values are not necessarily an indicator of the inhibitory potency, but provide information on selectivity for modified dNTPs compared to natural dNTPs. […] The ability to purify sufficient quantities of tcTERT enables characterization of the catalytic nucleotide addition by pre-steady-state single turnover kinetics using a defined DNA–RNA primer–template substrate. The catalytic efficiency of incorporating a single dNTP is measured by dividing the observed nucleotide incorporation rate constant, kpol, by the equilibrium dissociation constant for dNTP binding to the tcTERT–primer–template complex (Kd)[44].
Pre-steady-state kinetic parameters of tcTERT were obtained using established pre-steady-state kinetics protocols for DNA polymerases, also known as single turnover kinetics[70],[71]. Briefly, we preincubated 2 μM tcTERT with 200 nM annealed DNA:RNA hybrid substrate, with a 6-FAM label on the 5′ end of the DNA component. We then used a KinTek RQF-3 (a rapid quench-flow instrument) to mix equal ratios of the incoming nucleotide triphosphate and 10 mM MgCl2 with the existing mix of tcTERT and its DNA:RNA hybrid substrate. Reactions were run at 37 °C and quenched at various timepoints with 100 mM EDTA pH 7.5. […] After each reaction, the samples were transferred to a DNA gel loading buffer, containing 100 mM EDTA, 80% deionized formamide, 0.25 mg ml^−1 bromophenol blue, and 0.25 mg ml^−1 xylene cyanol. These mixes were then incubated at 95 °C for 5 min, and loaded onto a 21% denaturing polyacrylamide gel. These gels were run at 700 V, […], and 30 W at 30 °C in order to separate the reaction product from its substrate.
Means and standard deviations from at least three independent replicates were calculated, and graphed using KaleidaGraph version 4.5.2. Plots of product formation over time were fit to the exponential equation (1) to determine kobs values:1 P=A(1−e^−kobst).
In which [P] is the concentration of the product, A is the target engagement (amplitude), and t is the reaction time. After kobs values were determined for multiple nucleotide triphosphate concentrations, the data was replot to compare kobs to concentration of nucleotide triphosphate, and fit to Eq. (2):2 kobs=kpol[NTP]/Kd+[NTP]. with kpol representing the theoretical maximum value of kobs, and [NTP] representing the concentration of the nucleotide of interest.

The next assay addresses polymerase β (Homo sapiens, UniProt P06746). Nature of the assay: Polymerase β dGTP run-on assay. Type of assay: biochemical. The settings on record: 50 or 200 μM dGTP. As to the method: These mixes were then incubated at 95 °C for 5 min, and loaded onto a 21% denaturing polyacrylamide gel. These gels were run at 700 V, […], and 30 W at 30 °C in order to separate the reaction product from its substrate.
Supplementary Fig 4. Time course reactions with telomerase or pol β. (a, b) Telomerase reactions were conducted with 5 nM 32P-end labeled primer (a) Primer 4 (GTTAGG)3 or (b) Primer 2 (GGTTAG)3.
Products were separated on denaturing gels. Letters on the right indicate the template base; P indicates unextended 18-mer primer. Graphs represent the percent primer extended for the reactions in panels a and b from one experiment. ( c, d) Primer extension by human polymerase b. The double stranded 6- […]
reactions were run on denaturing gels and imaged using a Typhoon phosphoimager. P indicates unextended 13-mer primer from three independent experiments. Source data are provided as a Source […]

In assay [2] the target is T1, tcTERT. The settings on record: cited from earlier work.
Setting [3] is: dNTP binding to tcTERT-primer-template complex.

T1 sequence (Q0QHL8 entry or part of it): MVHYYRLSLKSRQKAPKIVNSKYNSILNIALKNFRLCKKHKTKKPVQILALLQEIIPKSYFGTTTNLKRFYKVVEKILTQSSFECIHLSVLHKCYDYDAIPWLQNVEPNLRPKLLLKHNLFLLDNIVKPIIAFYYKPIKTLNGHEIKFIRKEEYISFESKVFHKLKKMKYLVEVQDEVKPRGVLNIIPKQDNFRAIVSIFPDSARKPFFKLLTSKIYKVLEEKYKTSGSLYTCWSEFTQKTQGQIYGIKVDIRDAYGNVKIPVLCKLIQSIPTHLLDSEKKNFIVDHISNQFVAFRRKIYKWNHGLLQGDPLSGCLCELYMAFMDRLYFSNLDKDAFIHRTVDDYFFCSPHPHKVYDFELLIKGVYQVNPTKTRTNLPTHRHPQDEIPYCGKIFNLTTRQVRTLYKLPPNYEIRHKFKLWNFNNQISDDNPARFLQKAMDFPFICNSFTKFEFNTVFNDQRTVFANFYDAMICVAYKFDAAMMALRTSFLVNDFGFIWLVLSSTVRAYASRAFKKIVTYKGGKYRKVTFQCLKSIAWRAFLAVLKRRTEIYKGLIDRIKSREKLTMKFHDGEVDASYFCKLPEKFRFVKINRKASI

One may read the Kd as the concentration at which binding is half-saturated. Consider `Nc1nc2c(ncn2C2CC(O)C(COP(=O)(O)OP(=O)(O)OP(=O)(O)O)O2)c(=S)[nH]1` (stereo not shown) [6-thio-dGTP], for which the tcTERT kobs at tcTERT [1] ([6-thio-dGTP] 0.5 uM, Mean) was 0.024; at tcTERT [1] ([6-thio-dGTP] 0.5 uM, single replicates), 0.020 and 0.017 and 0.037; at tcTERT [1] ([6-thio-dGTP] 1 uM, Mean) it was 0.036; at tcTERT [1] ([6-thio-dGTP] 1 uM, single replicates), 0.046 and 0.026 and 0.035; at tcTERT [1] ([6-thio-dGTP] 3 uM, Mean), 0.084; at tcTERT [1] ([6-thio-dGTP] 3 uM, single replicates) it was 0.093 and 0.083 and 0.076. Besides, the tcTERT kobs at tcTERT [1] ([6-thio-dGTP] 5 uM, Mean) is 0.142; at tcTERT [1] ([6-thio-dGTP] 5 uM, single replicates), 0.256 and 0.136 and 0.070 and 0.105; on tcTERT [1] ([6-thio-dGTP] 7 uM, Mean), 0.143; at tcTERT [1] ([6-thio-dGTP] 7 uM, single replicates) it was 0.232 and 0.073 and 0.125; on tcTERT [1] ([6-thio-dGTP] 10 uM, Mean) it was 0.239; on tcTERT [1] ([6-thio-dGTP] 10 uM, single replicates) it was 0.389 and 0.333 and 0.126 and 0.109. Besides, the tcTERT kobs at tcTERT [1] ([6-thio-dGTP] 15 uM, Mean) was 0.330; on tcTERT [1] ([6-thio-dGTP] 15 uM, single replicates), 0.523 and 0.151 and 0.314; on tcTERT [1] ([6-thio-dGTP] 20 uM, Mean), 0.552; at tcTERT [1] ([6-thio-dGTP] 20 uM, single replicates), 0.535 and 0.464 and 0.603 and 0.606; at tcTERT [1] ([6-thio-dGTP] 25 uM, Mean), 0.632; on tcTERT [1] ([6-thio-dGTP] 25 uM, single replicates), 0.411 and 0.737 and 0.749. Besides, the tcTERT kobs was 0.951 at tcTERT [1] ([6-thio-dGTP] 40 uM, Mean); 0.795 and 1.041 and 1.018 at tcTERT [1] ([6-thio-dGTP] 40 uM, single replicates); 1.139 at tcTERT [1] ([6-thio-dGTP] 50 uM, Mean); 1.051 and 1.270 and 1.096 on tcTERT [1] ([6-thio-dGTP] 50 uM, single replicates); 1.424 at tcTERT [1] ([6-thio-dGTP] 75 uM, Mean); 1.281 and 1.438 and 1.554 on tcTERT [1] ([6-thio-dGTP] 75 uM, single replicates). Besides, the tcTERT kobs is 1.760 on tcTERT [1] ([6-thio-dGTP] 100 uM, Mean); 1.806 and 1.680 and 1.793 at tcTERT [1] ([6-thio-dGTP] 100 uM, single replicates); 1.896 on tcTERT [1] ([6-thio-dGTP] 150 uM, Mean); 1.870 and 2.039 and 1.778 on tcTERT [1] ([6-thio-dGTP] 150 uM, single replicates). The Fold change at tcTERT [1] is listed as 0.579. Also, the dissociation constant (Kd) on tcTERT [1] (setting [3]) worked out at 92.4 ± 12.9 µM. This molecule also registered a kpol on tcTERT [1] (single nucleotide insertion, 37 °C) of 3.1 ± 0.23 s⁻¹.
With `Nc1nc2c(ncn2C2CC(O)C(COP(=O)(O)OP(=O)(O)OP(=O)(O)O)O2)c(=O)[nH]1` (stereo not shown) [dGTP], at tcTERT [1], the “Fold higher catalytic efficiency of dGTP compared to 6-thio-dGTP” value is listed as 2 fold and the Fold change turned out to be 1.000. Also, on polymerase β, the “Laddering or misincorporation by DNA polymerase β (in words)” value was “no evidence of dGTP laddering or misincorporation opposite template A”. Further, the Kd at tcTERT [2] (setting [3]) was 18.1 ± 3.78 µM. Also, at tcTERT [2] (single nucleotide insertion), the “Catalytic efficiency (kpol/Kd)” value was 58000 ± 12000 M⁻¹ s⁻¹ and the kpol was 1.1 ± 0.03 s⁻¹.
